Our source for the cell viability values is the supplement of paper PMC10981050.

Each structure is given as a SMILES string. Values joined by “and” are separate entries in the source; they are usually repeats but may differ in a detail not shown here. Equal values may be shown once. ± gives the standard deviation of the averaged measurements.

Assay in all cases: cell viability relative to vehicle control; higher = less cytotoxic
The test system of one test is OCI-AML2. The settings on record: SRSF2 genotype: SRSF2 WT. Here is the method:
(§1)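 Isogenic SRSF2 WT and CRISPR SRSF2 P95 mutant clones of MOLM14, OCI-AML2 and MARIMO were exposed to ROCK inhibitors at 7 doses (0.037 to 29.9 µM) for 48 h. Viability was read by CellTiter-Glo luminescence and normalised to the vehicle control on each plate (%).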

A further test deals with MARIMO. The settings on record: SRSF2 genotype: SRSF2 WT. Here is the method:
as §1

The subject of the next test is MOLM14. The procedure: as §1
Setting [1] is: 0.037 µM, SRSF2 genotype: SRSF2 WT.
Where [2] appears, read: 0.129 µM, SRSF2 genotype: SRSF2 WT.
The mark [3] stands for this setting: 0.369 µM, SRSF2 genotype: SRSF2 WT.
[4] abbreviates: 0.997 µM, SRSF2 genotype: SRSF2 WT.
The mark [5] stands for this setting: 3.49 µM, SRSF2 genotype: SRSF2 WT.
[6] abbreviates: 9.97 µM, SRSF2 genotype: SRSF2 WT.
Where [7] appears, read: 29.9 µM, SRSF2 genotype: SRSF2 WT.

In the case of `CC1=C(C(=O)Nc2cc3cn[nH]c3cc2F)C(c2ccc(C(F)(F)F)cc2)CC(=O)N1` (stereo not given), the cell viability came out at 107 ± 1.6% in the test with OCI-AML2 (0.037 µM); 101 ± 5% in the test on OCI-AML2 (0.129 µM); 96.9 ± 7.2% in the test on OCI-AML2 (0.369 µM); 93.11 ± 0.21% with OCI-AML2 (0.997 µM); 68 ± 7.8% in the test with OCI-AML2 (3.49 µM); 43.5 ± 9.3% in the test on OCI-AML2 (9.97 µM). Further, the cell viability in the test on OCI-AML2 (29.9 µM) came out at 39.4 ± 6%; with MARIMO (0.037 µM) it was 103 ± 1.2%; in the test on MARIMO (0.129 µM), 100.4 ± 0.44%; in the test with MARIMO (0.369 µM), 96 ± 7.2%; in the test with MARIMO (0.997 µM) it was 103 ± 5.5%; in the test on MARIMO (3.49 µM), 98.9 ± 4.7%. The cell viability with MARIMO (9.97 µM) is 92.2 ± 11%; with MARIMO (29.9 µM), 95 ± 8.2%; in the test on MOLM14 (0.037 µM, SRSF2 genotype: SRSF2 P95 mutant) it was 112% and 102% and 97.1%; in the test with MOLM14 (setting [1]), 94 ± 18%; with MOLM14 (0.129 µM, SRSF2 genotype: SRSF2 P95 mutant) it was 107% and 105% and 103%; in the test on MOLM14 (setting [2]) it was 96.4 ± 9.5%. Moreover, the cell viability in the test with MOLM14 (setting [3]) worked out at 90.1 ± 19%; in the test with MOLM14 (setting [4]) it was 82.5 ± 16%; with MOLM14 (setting [5]) it was 66.2 ± 16%; in the test with MOLM14 (setting [6]), 60.3 ± 14%; with MOLM14 (setting [7]) it was 53 ± 13%.

Regarding `CC1=C(C(=O)Nc2ccc3[nH]ncc3c2)C(c2ccc(F)cc2)NC(=O)N1` (stereo not given), the cell viability in the test on OCI-AML2 (0.037 µM) amounted to 110 ± 6.1%; in the test on OCI-AML2 (0.129 µM) it was 103 ± 7.4%; in the test on OCI-AML2 (0.369 µM), 102 ± 4.6%; in the test with OCI-AML2 (0.997 µM), 101 ± 6.8%; in the test with OCI-AML2 (3.49 µM) it was 78.3 ± 5.9%; with OCI-AML2 (9.97 µM) it was 48.1 ± 6.7%. The cell viability was 39 ± 4.3% in the test on OCI-AML2 (29.9 µM); 102.6 ± 0.94% in the test on MARIMO (0.037 µM); 102 ± 2.7% with MARIMO (0.129 µM); 100 ± 2.2% in the test with MARIMO (0.369 µM); 101 ± 4.8% in the test on MARIMO (0.997 µM); 96.1 ± 2.5% in the test on MARIMO (3.49 µM). In addition, the cell viability in the test on MARIMO (9.97 µM) came out at 97.6 ± 13%; with MARIMO (29.9 µM), 99.8 ± 5.5%; with MOLM14 (setting [1]) it was 96.5 ± 12%; with MOLM14 (setting [2]) it was 96.7 ± 4.2%; in the test with MOLM14 (setting [3]), 102 ± 14%; in the test on MOLM14 (setting [4]), 95.8 ± 12%. Moreover, the cell viability with MOLM14 (setting [5]) worked out at 78.3 ± 14%; in the test on MOLM14 (setting [6]), 66.3 ± 14%; with MOLM14 (setting [7]) it was 54.9 ± 10%.

Consider `C[C@@H](N)c1ccc(C(=O)Nc2ccnc3[nH]ccc23)cc1`, for which the cell viability in the test on OCI-AML2 (0.037 µM) was 104 ± 7.8%; with OCI-AML2 (0.129 µM) it was 99.9 ± 1%; in the test on OCI-AML2 (0.369 µM), 93.2 ± 4.4%; in the test with OCI-AML2 (0.997 µM), 85 ± 1.9%; with OCI-AML2 (3.49 µM) it was 52 ± 2%; with OCI-AML2 (9.97 µM) it was 30.4 ± 4.6%. Also, the cell viability turned out to be 7.89 ± 0.6% in the test on OCI-AML2 (29.9 µM); 99.5 ± 4.6% in the test with MARIMO (0.037 µM); 101 ± 3.1% in the test on MARIMO (0.129 µM); 96.2 ± 1.6% in the test on MARIMO (0.369 µM); 101 ± 1.3% in the test on MARIMO (0.997 µM); 93.99 ± 0.9% in the test with MARIMO (3.49 µM). In addition, the cell viability in the test on MARIMO (9.97 µM) was determined as 84.1 ± 7.2%; with MARIMO (29.9 µM), 35.1 ± 0.58%; in the test with MOLM14 (setting [1]), 90.1 ± 21%; with MOLM14 (setting [2]), 94 ± 13%; in the test with MOLM14 (setting [3]), 87.1 ± 18%; in the test with MOLM14 (setting [4]), 81.4 ± 17%. The cell viability turned out to be 51.8 ± 14% in the test with MOLM14 (setting [5]), 29.4 ± 7.5% with MOLM14 (setting [6]) and 7.13 ± 1.6% in the test on MOLM14 (setting [7]).

As a reminder, the cell viability is a read-out of living cells in per cent, often relative to untreated cells.
